The source made the active and inactive calls. No cut-off for these calls is given here.
Experiments:
[1] = Antiinflammatory activity against LPS-induced HFLS-RA cells; format: functional, cell-based, Homo sapiens
Rattus norvegicus [2] = test: Antiinflammatory activity against CFA-induced rheumatoid arthritis Wistar rat model assessed as decrease in IL-1beta level at 30 mg/kg, ig measured after 28 days; format: functional, organism-based; settings: time 28.0 day
HFLS-RA [3] = test: Antiinflammatory activity against LPS-induced HFLS-RA cells assessed as reduction in IL-1alpha expression; format: functional, cell-based; settings: Homo sapiens, dose 5-20 µM
HFLS-RA [4] = test: Antiinflammatory activity against LPS-induced HFLS-RA cells assessed as reduction in IL-1beta expression; format: functional, cell-based; settings: Homo sapiens, dose 5-20 µM
HFLS-RA [5] = test: Antiinflammatory activity against LPS-induced HFLS-RA cells assessed as reduction in IL-6 expression; format: functional, cell-based; settings: Homo sapiens, dose 5-20 µM
HFLS-RA [6] = test: Antiinflammatory activity against LPS-induced HFLS-RA cells assessed as reduction in TNF-alpha expression; format: functional, cell-based; settings: Homo sapiens, dose 5-20 µM
Rattus norvegicus [7] = test: Antiarthritic activity in CFA-induced rheumatoid arthritis Wistar rat model assessed as reduction in arthritis index at 30 mg/kg, ig for 28 days; format: functional, organism-based; settings: time 28.0 day
Rattus norvegicus [8] = test: Antiarthritic activity in CFA-induced rheumatoid arthritis Wistar rat model assessed as reduction in foot swelling at 30 mg/kg, ig measured after 21 to 28 days; format: functional, organism-based; settings: time 21-28 day
Rattus norvegicus [9] = test: Antiarthritic activity in CFA-induced rheumatoid arthritis Wistar rat model assessed as increase in weight at 30 mg/kg, ig measured after 14 to 28 days; format: functional, organism-based; settings: time 14-28 day
Rattus norvegicus [10] = test: Antiinflammatory activity against CFA-induced rheumatoid arthritis Wistar rat model assessed as decrease in cell infiltration at 30 mg/kg, ig after 28 days; format: functional, organism-based; settings: time 28.0 day
Rattus norvegicus [11] = test: Antiinflammatory activity against CFA-induced rheumatoid arthritis Wistar rat model assessed as decrease in TNFalpha level at 30 mg/kg, ig measured after 28 days; format: functional, organism-based; settings: time 28.0 day
Rattus norvegicus [12] = test: Antiinflammatory activity against CFA-induced rheumatoid arthritis Wistar rat model assessed as decrease in IL6 level at 30 mg/kg, ig measured after 28 days; format: functional, organism-based; settings: time 28.0 day
Rattus norvegicus [13] = test: Antiinflammatory activity against CFA-induced rheumatoid arthritis Wistar rat model assessed as decrease in spleen index at 30 mg/kg, ig measured after 28 days; format: functional, organism-based; settings: time 28.0 day
Rattus norvegicus [14] = test: Antiinflammatory activity against CFA-induced rheumatoid arthritis Wistar rat model assessed as decrease in paw swelling at 30 mg/kg, ig after 28 days; format: functional, organism-based; settings: time 28.0 day
Rattus norvegicus [15] = test: Antiinflammatory activity against CFA-induced rheumatoid arthritis Wistar rat model assessed as decrease in synovial hyperplasia at 30 mg/kg, ig after 28 days; format: functional, organism-based; settings: time 28.0 day
Rattus norvegicus [16] = test: Antiinflammatory activity against CFA-induced rheumatoid arthritis Wistar rat model assessed as decrease in cartilage damage at 30 mg/kg, ig after 28 days; format: functional, organism-based; settings: time 28.0 day
Rattus norvegicus [17] = test: Antiarthritic activity in CFA-induced rheumatoid arthritis Wistar rat model assessed as reduction in arthritis index at 3 mg/kg, ig for 28 days; format: functional, organism-based; settings: time 28.0 day
Rattus norvegicus [18] = test: Antiarthritic activity in CFA-induced rheumatoid arthritis Wistar rat model assessed as reduction in foot swelling at 3 mg/kg, ig measured after 21 to 28 days; format: functional, organism-based; settings: time 21-28 day
Rattus norvegicus [19] = test: Antiarthritic activity in CFA-induced rheumatoid arthritis Wistar rat model assessed as increase in weight at 3 mg/kg, ig measured after 14 to 28 days; format: functional, organism-based; settings: time 14-28 day
Rattus norvegicus [20] = test: Antiinflammatory activity against CFA-induced rheumatoid arthritis Wistar rat model assessed as decrease in IL-1beta level at 3 mg/kg, ig measured after 28 days; format: functional, organism-based; settings: time 28.0 day
Rattus norvegicus [21] = test: Antiinflammatory activity against CFA-induced rheumatoid arthritis Wistar rat model assessed as decrease in TNFalpha level at 3 mg/kg, ig measured after 28 days; format: functional, organism-based; settings: time 28.0 day
Rattus norvegicus [22] = test: Antiinflammatory activity against CFA-induced rheumatoid arthritis Wistar rat model assessed as decrease in IL6 level at 3 mg/kg, ig measured after 28 days; format: functional, organism-based; settings: time 28.0 day
Rattus norvegicus [23] = test: Antiinflammatory activity against CFA-induced rheumatoid arthritis Wistar rat model assessed as decrease in spleen index at 3 mg/kg, ig measured after 28 days; format: functional, organism-based; settings: time 28.0 day
Rattus norvegicus [24] = test: Antiinflammatory activity against CFA-induced rheumatoid arthritis Wistar rat model assessed as decrease in synovial hyperplasia at 3 mg/kg, ig after 28 days; format: functional, organism-based; settings: time 28.0 day
Rattus norvegicus [25] = test: Antiinflammatory activity against CFA-induced rheumatoid arthritis Wistar rat model assessed as decrease in cell infiltration at 3 mg/kg, ig after 28 days; format: functional, organism-based; settings: time 28.0 day
Rattus norvegicus [26] = test: Antiinflammatory activity against CFA-induced rheumatoid arthritis Wistar rat model assessed as decrease in cartilage damage at 3 mg/kg, ig after 28 days; format: functional, organism-based; settings: time 28.0 day
Sphingosine kinase 1 = Sphingosine kinase 1 (Homo sapiens, UniProt Q9NYA1); test: Inhibition of SphK1 (unknown origin)
Sphingosine kinase 2 = biological target: T1, Sphingosine kinase 2 (Homo sapiens, UniProt Q9NRA0); test: Inhibition of SphK2 (unknown origin)
T1 sequence (Q9NRA0 whole entry): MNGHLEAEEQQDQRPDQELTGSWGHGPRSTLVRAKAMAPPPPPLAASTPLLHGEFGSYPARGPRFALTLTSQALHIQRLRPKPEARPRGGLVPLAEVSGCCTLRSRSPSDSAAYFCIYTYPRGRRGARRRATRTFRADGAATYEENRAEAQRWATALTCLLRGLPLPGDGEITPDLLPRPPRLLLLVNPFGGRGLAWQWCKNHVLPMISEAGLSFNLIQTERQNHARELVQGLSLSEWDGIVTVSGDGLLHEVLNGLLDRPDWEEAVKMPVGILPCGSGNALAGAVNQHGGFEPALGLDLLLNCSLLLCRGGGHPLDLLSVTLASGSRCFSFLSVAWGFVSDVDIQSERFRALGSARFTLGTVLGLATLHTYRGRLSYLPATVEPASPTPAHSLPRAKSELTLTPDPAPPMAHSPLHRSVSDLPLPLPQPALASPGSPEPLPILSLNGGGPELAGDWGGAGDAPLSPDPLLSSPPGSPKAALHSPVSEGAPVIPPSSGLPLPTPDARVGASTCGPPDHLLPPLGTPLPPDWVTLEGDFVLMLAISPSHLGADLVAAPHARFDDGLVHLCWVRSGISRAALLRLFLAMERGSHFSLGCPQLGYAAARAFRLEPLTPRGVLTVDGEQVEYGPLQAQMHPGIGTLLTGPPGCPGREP

Chain of Sphingosine kinase 1 (Q9NYA1 whole entry): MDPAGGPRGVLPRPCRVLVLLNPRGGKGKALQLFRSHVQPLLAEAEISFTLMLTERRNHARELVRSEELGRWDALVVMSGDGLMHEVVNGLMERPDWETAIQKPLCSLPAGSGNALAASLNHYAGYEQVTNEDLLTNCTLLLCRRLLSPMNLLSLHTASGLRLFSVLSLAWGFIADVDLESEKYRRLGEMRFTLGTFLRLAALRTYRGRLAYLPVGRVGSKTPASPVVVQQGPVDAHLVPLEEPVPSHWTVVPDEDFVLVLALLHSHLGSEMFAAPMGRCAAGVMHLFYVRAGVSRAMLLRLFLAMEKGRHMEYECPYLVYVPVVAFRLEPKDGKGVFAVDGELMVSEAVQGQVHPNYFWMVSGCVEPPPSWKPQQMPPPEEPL

**Q.** With `N[C@H]1CN[C@H](CCCCCCCCCOCC2CCCCC2)[C@H]1O` as the molecule, how does the IC50 [1] read?
**A.** 99.7 µM

**Q.** Which IC50 [1] does the source give for `CC(C)COCCCCCCCCCC[C@H]1NC[C@H](N)[C@@H]1O` here?
**A.** 18.1 µM

**Q.** With `N[C@H]1CN[C@H](CCCCCCCCCCCOCC2CCCCC2)[C@H]1O` as the molecule, how does the IC50 [1] read?
**A.** 46.3 µM

**Q.** With `CN(Cc1cnc2nc(N)nc(N)c2n1)c1ccc(C(=O)N[C@@H](CCC(=O)O)C(=O)O)cc1` [METHOTREXATE] as the molecule, how does the IC50 [1] read?
**A.** 5.48 µM

**Q.** Which IC50 [1] does the source give for `CC(OCCCCCCCCCC[C@H]1NC[C@H](N)[C@@H]1O)c1ccccc1` (some centres not stated) here?
**A.** 24.8 µM

**Q.** With `N[C@H]1CN[C@H](CCCCCCCCCCCOC2CCOCC2)[C@H]1O` as the molecule, how does the IC50 [1] read?
**A.** 11.2 µM

**Q.** Which IC50 [1] does the source give for `CCCCCCCCCCCC[C@H]1NC[C@H](N)[C@@H]1O` here?
**A.** 94.8 µM

**Q.** For `N#Cc1ccc(COCCCCCCCCCC[C@H]2NC[C@H](N)[C@@H]2O)cc1`, which IC50 [1] is on record?
**A.** 10.2 µM

**Q.** With `N[C@H]1CN[C@H](CCCCCCCCCOCc2ccccc2)[C@H]1O` as the molecule, how does the IC50 [1] read?
**A.** 15.1 µM

**Q.** With `CCCCCCCCCCCCCC[C@H]1NC[C@H](N)[C@@H]1O` [listing 1 of 3 here] as the molecule, how does the Activity (Rattus norvegicus [2]) read?
**A.** Active

**Q.** What about the Activity (HFLS-RA [3]) of the same molecule?
**A.** Dose-dependent effect

**Q.** What about the Activity (HFLS-RA [4]) of the same molecule?
**A.** Dose-dependent effect

**Q.** And the Activity (HFLS-RA [5])?
**A.** Dose-dependent effect

**Q.** What about the Activity (HFLS-RA [6]) of the same molecule?
**A.** Dose-dependent effect

**Q.** What about the Activity (Rattus norvegicus [7]) of the same molecule?
**A.** Active

**Q.** And the Activity (Rattus norvegicus [8])?
**A.** Active

**Q.** And the Activity (Rattus norvegicus [9])?
**A.** Active

**Q.** And the Activity (Rattus norvegicus [10])?
**A.** Active

**Q.** And the Activity (Rattus norvegicus [11])?
**A.** Active

**Q.** And the Activity (Rattus norvegicus [12])?
**A.** Active

**Q.** What about the Activity (Rattus norvegicus [13]) of the same molecule?
**A.** Active

**Q.** What about the Activity (Rattus norvegicus [14]) of the same molecule?
**A.** Active

**Q.** What about the Activity (Rattus norvegicus [15]) of the same molecule?
**A.** Active

**Q.** And the Activity (Rattus norvegicus [16])?
**A.** Active

**Q.** Which IC50 [1] does the source give for `N[C@H]1CN[C@H](CCCCCCCCCCOCc2ccc(F)cc2)[C@H]1O` here?
**A.** 10.7 µM

**Q.** For `Cc1ccc(-c2cc(C(F)(F)F)nn2-c2ccc(S(N)(=O)=O)cc2)cc1`, which Activity (Rattus norvegicus [17]) is on record?
**A.** Active

**Q.** What about the Activity (Rattus norvegicus [18]) of the same molecule?
**A.** Active

**Q.** What about the Activity (Rattus norvegicus [19]) of the same molecule?
**A.** Active

**Q.** And the Activity (Rattus norvegicus [20])?
**A.** Active

**Q.** What about the Activity (Rattus norvegicus [21]) of the same molecule?
**A.** Active

**Q.** What about the Activity (Rattus norvegicus [22]) of the same molecule?
**A.** Active

**Q.** What about the Activity (Rattus norvegicus [23]) of the same molecule?
**A.** Active

**Q.** And the Activity (Rattus norvegicus [24])?
**A.** Active

**Q.** And the Activity (Rattus norvegicus [25])?
**A.** Active

**Q.** What about the Activity (Rattus norvegicus [26]) of the same molecule?
**A.** Active

**Q.** Which IC50 [1] does the source give for `N[C@H]1CN[C@H](CCCCCCCCCCOO)[C@H]1O` here?
**A.** 116 µM

**Q.** Which IC50 [1] does the source give for `N[C@H]1CN[C@H](CCCCCCCCCCOCc2ccc(C(F)(F)F)cc2)[C@H]1O` here?
**A.** 19.6 µM

**Q.** Which IC50 [1] does the source give for `CCCCCCCCCCCCCC[C@H]1NC[C@H](N)[C@@H]1O` [listing 2 of 3 here] here?
**A.** 8.64 µM

**Q.** What about the IC50 (Sphingosine kinase 1) of the same molecule?
**A.** 8.89 µM

**Q.** What about the IC50 (Sphingosine kinase 2) of the same molecule?
**A.** > 100 µM

**Q.** Which IC50 [1] does the source give for `Cc1c(F)c(F)c(COCCCCCCCCCC[C@H]2NC[C@H](N)[C@@H]2O)c(F)c1F` here?
**A.** 11.4 µM

**Q.** Which IC50 [1] does the source give for `COc1ccc(COCCCCCCCCCC[C@H]2NC[C@H](N)[C@@H]2O)c(OC)c1` here?
**A.** 14.3 µM

**Q.** With `N[C@H]1CN[C@H](CCCCCCCCCCOCC2CCCCC2)[C@H]1O` as the molecule, how does the IC50 [1] read?
**A.** 51.2 µM

**Q.** Which IC50 [1] does the source give for `CCCCCCCCCCCCCC[C@H]1NC[C@H](N)[C@@H]1O` [listing 3 of 3 here] here?
**A.** 10.7 µM

**Q.** And the IC50 (Sphingosine kinase 1)?
**A.** > 100 µM

**Q.** What about the IC50 (Sphingosine kinase 2) of the same molecule?
**A.** > 100 µM

**Q.** With `CC(OCCCCCCCCCC[C@H]1NC[C@H](N)[C@@H]1O)c1ccc(F)cc1` (some centres not stated) as the molecule, how does the IC50 [1] read?
**A.** 18.9 µM

— ChEMBL document CHEMBL4715882, “Evaluation of pyrrolidine-based analog of jaspine B as potential SphK1 inhibitors against rheumatoid arthritis” (Bioorg Med Chem Lett, 2021)
